According to patent US8835433B2, “Optically pure diastereomers of 10-Propargyl-10-deazaaminopterin and methods of using same for the treatment of cancer” (Allos Therapeutics, Inc., priority 2010, dated 2014):

Key:
[1] = system: CWR22-RV1 (prostate) cell lines; experiment: MTS growth inhibition assay, CWR22-RV1; format: cell-based; settings: Homo sapiens, CWR22Rv1, separate experiments
[2] = system: SKBR-3 (breast cancer) human tumor cell line; experiment: MTS growth inhibition assay, SKBR-3; format: cell-based; settings: SK-BR-3, SK-BR3 (breast), 3 h treatment, 72 h recovery
Description: (§1) The agents PDX, PDX-10a, PDX-10b, were evaluated for growth inhibitory activity against, MDA-MB-435, SKBR-3 and NCI-H460 human tumor cell lines. Growth inhibition was measured by MTS assay following three hours of continuous treatment and a seventy-two hour recovery incubation. The purpose of these studies was to determine the cytotoxic activity of the compounds in the tumor cell lines studies studied.
Materials and Methods. Preparation of PDX-10a and PDX-10b was performed as discussed in Examples 1-2. The PDX compounds were diluted in dimethylsulfoxide (DMSO) at a concentration of 20 mM. From this solution a stock solution of 2 mM was made by dilution with phosphate-buffered saline (PBS). This 2 mM stock solution in 10% DMSO/90% PBS was used to make 2× concentrations of the titration series in cell growth medium which was added to the cell cultures in a 1:1 ratio to make 1× concentrations. Cell lines—The human tumor cell lines: MDA-MB-435 (melanoma), SKBR-3 (breast cancer) and NCI-H460 (lung cancer) were cultured in RPMI medium (RPMI; Nova Tech, Grand Island, N.Y.) containing ten percent dialyzed fetal bovine serum (FBS; Nova Tech). […]
Single Agent Pulse Studies—Treatment with test agents or standard agents (controls) was initiated 24 hours after plating cells (Day 1). […] Following incubation, the viable cell number was quantified by the MTS assay described below. […]
MTS Assay—Cell viability was determined using the MTS assay. […] Formazan production was quantified by spectrophotometric measurement at 490 nm and is proportional to viable cell number. […] Absorbance (OD) values were measured using a Dynex HD microplate reader at a single wavelength of 490 nm.
(§2) Data Analysis—Data from each experiment was collected and expressed as OD490 versus the log10 of the test agent concentration. […]

[3] = system: MDA-MB-435 (melanoma) human tumor cell line; experiment: MTS growth inhibition assay, MDA-MB-435; format: cell-based; settings: 3 h treatment, 72 h recovery
Description: as §1
Materials and Methods. Preparation of PDX-10a and PDX-10b was performed as discussed in Examples 1-2. The PDX compounds were diluted in dimethylsulfoxide (DMSO) at a concentration of 20 mM. From this solution a stock solution of 2 mM was made by dilution with phosphate-buffered saline (PBS). This 2 mM stock solution in 10% DMSO/90% PBS was used to make 2× concentrations of the titration series in cell growth medium which was added to the cell cultures in a 1:1 ratio to make 1× concentrations. Cell lines—The human tumor cell lines: MDA-MB-435 (melanoma), SKBR-3 (breast cancer) and NCI-H460 (lung cancer) were cultured in RPMI medium (RPMI; Nova Tech, Grand Island, N.Y.) containing ten percent dialyzed fetal bovine serum (FBS; Nova Tech). Once cells reached seventy percent confluency, they were trypsinized and resuspended in an alternate media (RPMI containing five percent dialyzed FBS (Hyclone, Logan, Utah). One day prior to treatment (Day 0), cultures were suspended at a concentration of 1−7.5×10^4 cell/ml and 100 μl aliquots were plated into each well of a 96-well microtiter plate at a final concentration of 1×10^3-7.5×10^3 cells/well. Cells were incubated for 24 hours at 37° C. prior to exposure with agents.
Test Agents—racemic PDX, and individual diastereomers PDX-10a and PDX-10b were prepared as described above. Cells were treated 24 hours after plating (Day 1) with vehicle (media) alone or the above test agents for three hours at concentrations between 3 μM and 10 μM.
Single Agent Pulse Studies—Treatment with test agents or standard agents (controls) was initiated 24 hours after plating cells (Day 1). Cells were incubated at 37° C. with each of the test agents or a “chemococktail” (positive control) consisting of 215 μM Etoposide, 20 μM Taxol, 38.5 nM Velcade at final concentration for three hours. Following treatment, drug was removed, growth media added, and cells incubated at 37° C. for 72 hours. Following incubation, the viable cell number was quantified by the MTS assay described below. Experiments were repeated twice at the same concentrations. Results from these studies were used to calculate an IC50 value (concentration of drug that inhibits cell growth by 50% of the vehicle) for each compound. IC50 values were generated with Prizm software.
MTS Assay—Cell viability was determined using the MTS assay. This colorimetric procedure measures conversion of the MTS reagent (a tetrazolium salt) to formazan by living cells. Formazan production was quantified by spectrophotometric measurement at 490 nm and is proportional to viable cell number. For these studies, cells were cultured and treated as listed above. At the end of the treatment, 20 μl MTS tetrazolium (1.9 mg/ml in PBS, pH 6.0) was added to the cells for 1 hour at 37° C. Absorbance (OD) values were measured using a Dynex HD microplate reader at a single wavelength of 490 nm.
as §2

[4] = Pharmacokinetics in rat (PDX-T-07034-R); format: in vivo; settings: plasma, 5 mg/kg; for half-life: read-out: t1/2 term
Description: (§3) Bioanalytical methods were developed and validated for quantitation of the 2 pralatrexate C10 diastereomers (PDX-10a and PDX-10b) in human, rat and dog plasma and urine. The basic bioanalytical method involves extraction of PDX-10a and PDX-10b from the matrix utilizing C18 solid-phase extraction (SPE) cartridges followed by derivatization (methylation with acetyl chloride) of the diastereomers for separation detection. The derivatized extracts are injected on a chiral high-performance liquid chromatography (HPLC) column for quantitation of each diastereomer by liquid chromatography-tandem mass spectrometry (LC/MS/MS). The lower limit of quantitation (LLOQ) for both diastereomers in plasma and urine matrices was 0.5 ng/mL. […]

[5] = Pharmacokinetics in dog (PDX-T-07054-D); format: in vivo; settings: for clearance / Vd / half-life: dog, plasma, 0.7 mg/kg; for half-life: read-out: t1/2 term
Description: as §3

[6] = system: cancer cell lines; experiment: In vitro cytotoxicity in additional solid and heme cancer cell lines; format: cell-based; settings: some / other cell lines (T-cell lymphoma, multiple myeloma, others); Example 5
Description: Additional cancer cell lines can be tested in accordance with the methods outlined in Example 3. Cancer cell lines for T-cell lymphoma, multiple myeloma, hematologic malignancies, head and neck cancer, cancer of the gastrointestinal tract, ovarian cancer, and osteosarcoma are tested with PDX-10a and PDX-10b.

[7] = Population pharmacokinetics in cancer patients after racemic PDX; settings: 3-compartment model, 154 cancer patients, IV racemic PDX
Description: Population (POP) pharmacokinetic (PK) parameters and effects of covariate factors (COV) for PDX-10a and PDX-10b after administration of racemic PDX in cancer patients were analyzed. POPPK data were pooled from 3 studies: 1) a phase 1 study in non-small lung cancer patients with intravenous (IV) doses of 150-325 mg/m^2, 2) a phase 1 study in advanced cancer patients with IV doses of 80-140 mg/m^2 plus a taxane, and 3) a phase 2 study in patients with relapsed or refractory PTCL at a dose of 30 mg/m^2/week IV. POP PK data for each diastereomer were analyzed using nonlinear mixed effects modeling with first-order conditional estimation. Model qualification included non-parametric bootstrap and predictive checks. Results: The POP PK database was comprised of 154 patients (94 males & 60 females, ages 21-85 years, weights 42.9-158 kg), contributing 1176 PDX-10a and 1173 PDX-10b plasma concentrations.

[8] = Homo sapiens, MDA-MB-435, MDA-MB-435 (melanoma)
[9] = both sexes, Day 1, 5 mg/kg, range of the mean for males and females and for PDX-10a and PDX-10b, read-out: CLtot
[10] = both sexes, Day 1, 5 mg/kg, range of the mean for males and females and for PDX-10a and PDX-10b, read-out: Vdss
[11] = both sexes, Day 1, 5 mg/kg, range of the mean for males and females and for PDX-10a and PDX-10b
[12] = both sexes, Day 1, calculated using average BW 0.35 kg, read-out: Vdss relative to BW
[13] = both sexes, Day 85, 5 mg/kg, range of the mean for males and females and for PDX-10a and PDX-10b, read-out: CLtot
[14] = both sexes, Day 85, 5 mg/kg, range of the mean for males and females and for PDX-10a and PDX-10b, read-out: Vdss
[15] = both sexes, Day 85, 5 mg/kg, range of the mean for males and females and for PDX-10a and PDX-10b
[16] = Day 1, calculated using average BW 0.35 kg, read-out: CLtot relative to BW
[17] = both sexes, Day 1, 0.7 mg/kg, range of the mean for males and females and for PDX-10a and PDX-10b, read-out: CLtot
[18] = both sexes, Day 1, 0.7 mg/kg, range of the mean for males and females and for PDX-10a and PDX-10b, read-out: Vdss
[19] = both sexes, Day 1, 0.7 mg/kg, range of the mean for males and females and for PDX-10a and PDX-10b
[20] = both sexes, Day 1, calculated using average BW 8.5 kg, read-out: Vdss relative to BW
[21] = both sexes, Day 281, 0.7 mg/kg, range of the mean for males and females and for PDX-10a and PDX-10b, read-out: CLtot
[22] = both sexes, Day 281, 0.7 mg/kg, range of the mean for males and females and for PDX-10a and PDX-10b, read-out: Vdss
[23] = both sexes, Day 281, 0.7 mg/kg, range of the mean for males and females and for PDX-10a and PDX-10b
[24] = Day 1, calculated using average BW 8.5 kg, read-out: CLtot relative to BW

Compound | IC50 [1] [nM] | IC50 [2] [nM] | IC50 [3, 8] [nM] | clearance [4, 9] [mL/min] | Vd [4, 10] [L] | half-life [4, 11] [min] | Vd [4, 12] [L/kg] | clearance [4, 13] [mL/min] | Vd [4, 14] [L] | half-life [4, 15] [min] | clearance [4, 16] [mL/min/kg] | clearance [5, 17] [mL/min] | Vd [5, 18] [L] | half-life [5, 19] [min] | Vd [5, 20] [L/kg] | clearance [5, 21] [mL/min] | Vd [5, 22] [L] | half-life [5, 23] [min] | clearance [5, 24] [mL/min/kg] | cytotoxic activity relative to racemate and other diastereomer [6] | further results
C#CC[C@@H](Cc1cnc2nc(N)nc(N)c2n1)c1ccc(C(=O)N[C@@H](CCC(=O)O)C(=O)O)cc1 (single isomer, unassigned) [PDX-10a] | 13.3 | 11.9 | 100 | 2.9 to 4 | 0.07 to 0.89 | 60 to 1200 | 0.2 to 2.5 | 3.4 to 3.9 | 0.15 to 0.18 | 60 to 360 | ~10 | 34 to 81 | 8 to 16 | 264 to 294 | 0.9 to 1.9 | 58 to 95 | 15 to 24 | 282 to 330 | 4 to 10 | increased activity relative to racemic PDX and/or PDX-10b | 1st inter-CMT CL, POP PK parameter estimate [7]: 6.97 L/h; 2nd inter-CMT CL, POP PK parameter estimate [7]: 1.43 L/h; clearance (CL), POP PK parameter estimate [7]: 35.0 L/h; volume for CMT 1, POP PK parameter estimate [7]: 11.0 L; volume for CMT 2, POP PK parameter estimate [7]: 9.71 L; volume for CMT 3, POP PK parameter estimate [7]: 50.6 L
C#CC[C@H](Cc1cnc2nc(N)nc(N)c2n1)c1ccc(C(=O)N[C@@H](CCC(=O)O)C(=O)O)cc1 (single isomer, unassigned) [PDX-10b] | 8.5 | 26.1 | 121 | 2.9 to 4 | 0.07 to 0.89 | 60 to 1200 | 0.2 to 2.5 | 3.4 to 3.9 | 0.15 to 0.18 | 60 to 360 | ~10 | 34 to 81 | 8 to 16 | 264 to 294 | 0.9 to 1.9 | 58 to 95 | 15 to 24 | 282 to 330 | 4 to 10 | increased activity relative to racemic PDX and/or PDX-10a | IC50 ([3]; MDA-MB-435 (melanoma)): 121 nM; higher clearance of PDX-10b compared with PDX-10a ([5]; dogs): 2 fold; 1st inter-CMT CL, POP PK parameter estimate [7]: 5.53 L/h; 2nd inter-CMT CL, POP PK parameter estimate [7]: 0.601 L/h; clearance (CL), POP PK parameter estimate [7]: 17.2 L/h; volume for CMT 1, POP PK parameter estimate [7]: 8.89 L; volume for CMT 2, POP PK parameter estimate [7]: 6.79 L; volume for CMT 3, POP PK parameter estimate [7]: 12.65 L
